Reference: ChEMBL document CHEMBL1149599, “Design, syntheses, and antitumor activity of novel chromone and aurone derivatives” (Bioorg Med Chem, 2007)

Columns and labels:
cells = assay type: functional, cell-based; conditions: Homo sapiens, MDA-MB-435S, 72 h
Description: Antiproliferative activity against human MDA-MB-435S cells after 72 hrs by MTT method

HEp-2 [1] = assay: Antiproliferative activity against human Hep2 cells after 72 hrs by MTT method; assay type: functional, cell-based; conditions: HEp-2, 72 h
SW480 = assay: Antiproliferative activity against human SW480 cells after 72 hrs by MTT method; assay type: functional, cell-based; conditions: SW480, 72 h
[2] = Antiproliferative activity against human HCCLM7 cells after 72 hrs by MTT method; assay type: functional, cell-based; conditions: HCCLM7, 72 h
HEp-2 [3] = assay: Cell cycle arrest in Hep2 cells assessed as accumulation at S phase at 4.7 uM after 24 hrs; assay type: functional, Homo sapiens
HEp-2 [4] = assay: Cell cycle arrest in Hep2 cells assessed as accumulation at G0/G1 phase at 4.7 uM after 36 hrs; assay type: functional, Homo sapiens
HEp-2 [5] = assay: Cell cycle arrest in Hep2 cells assessed as accumulation at S phase at 4.7 uM after 48 hrs; assay type: functional, Homo sapiens
HEp-2 [6] = assay: Cell cycle arrest in Hep2 cells assessed as accumulation at G2/M phase at 4.7 uM after 36 hrs; assay type: functional, Homo sapiens
HEp-2 [7] = assay: Cell cycle arrest in Hep2 cells assessed as accumulation at G0/G1 phase at 4.7 uM after 48 hrs; assay type: functional, Homo sapiens
HEp-2 [8] = assay: Cell cycle arrest in Hep2 cells assessed as accumulation at subG0 phase at 4.7 uM after 36 hrs; assay type: functional, Homo sapiens
HEp-2 [9] = assay: Cell cycle arrest in Hep2 cells assessed as accumulation at G2/M phase at 4.7 uM after 24 hrs; assay type: functional, Homo sapiens
HEp-2 [10] = assay: Cell cycle arrest in Hep2 cells assessed as accumulation at subG0 phase at 4.7 uM after 24 hrs; assay type: functional, Homo sapiens
HEp-2 [11] = assay: Cell cycle arrest in Hep2 cells assessed as accumulation at subG0 phase at 4.7 uM after 48 hrs; assay type: functional, Homo sapiens
HEp-2 [12] = assay: Cell cycle arrest in Hep2 cells assessed as accumulation at G0/G1 phase at 4.7 uM after 24 hrs; assay type: functional, Homo sapiens
HEp-2 [13] = assay: Cell cycle arrest in Hep2 cells assessed as accumulation at G2/M phase at 4.7 uM after 48 hrs; assay type: functional, cell-based, Homo sapiens
HEp-2 [14] = assay: Cell cycle arrest in Hep2 cells assessed as accumulation at S phase at 4.7 uM after 36 hrs; assay type: functional, Homo sapiens
HEp-2 [15] = assay: Cell cycle arrest in Hep2 cells assessed as accumulation at subG0 phase at 5.7 uM after 48 hrs; assay type: functional, Homo sapiens
HEp-2 [16] = assay: Cell cycle arrest in Hep2 cells assessed as accumulation at subG0 phase at 5.7 uM after 24 hrs; assay type: functional, Homo sapiens
HEp-2 [17] = assay: Cell cycle arrest in Hep2 cells assessed as accumulation at G0/G1 phase at 5.7 uM after 36 hrs; assay type: functional, Homo sapiens
HEp-2 [18] = assay: Cell cycle arrest in Hep2 cells assessed as accumulation at […] phase at 5.7 uM after 36 hrs; assay type: functional, Homo sapiens
HEp-2 [19] = assay: Cell cycle arrest in Hep2 cells assessed as accumulation at S phase at 5.7 uM after 36 hrs; assay type: functional, Homo sapiens
HEp-2 [20] = assay: Cell cycle arrest in Hep2 cells assessed as accumulation at G2/M phase at 5.7 uM after 24 hrs; assay type: functional, Homo sapiens
HEp-2 [21] = assay: Cell cycle arrest in Hep2 cells assessed as accumulation at S phase at 5.7 uM after 24 hrs; assay type: functional, Homo sapiens
HEp-2 [22] = assay: Cell cycle arrest in Hep2 cells assessed as accumulation at G0/G1 phase at 5.7 uM after 48 hrs; assay type: functional, Homo sapiens
HEp-2 [23] = assay: Cell cycle arrest in Hep2 cells assessed as accumulation at S phase at 5.7 uM after 48 hrs; assay type: functional, Homo sapiens
HEp-2 [24] = assay: Cell cycle arrest in Hep2 cells assessed as accumulation at subG0 phase at 5.7 uM after 36 hrs; assay type: functional, Homo sapiens
HEp-2 [25] = assay: Cell cycle arrest in Hep2 cells assessed as accumulation at […] phase at 5.7 uM after 48 hrs; assay type: functional, Homo sapiens
HEp-2 [26] = assay: Cell cycle arrest in Hep2 cells assessed as accumulation at G0/G1 phase at 5.7 uM after 24 hrs; assay type: functional, Homo sapiens

Row | Compound | IC50 (cells) | IC50 (HEp-2 [1]) | IC50 (SW480) | IC50 [2] | other results
1 | O=c1c(Sc2nc3ccccc3o2)coc2ccccc12 | 26.1 µM | 29.6 µM | 36.4 µM | > 50 µM | 
2 | O=c1c(Sc2nc3ccccc3s2)coc2ccccc12 | 17.1 µM | 31.3 µM | 45.2 µM | > 50 µM | 
3 | CN1CCN(/C=C2\Oc3ccccc3C2=O)CC1 | 40.3 µM | > 50 µM | > 50 µM | > 50 µM | 
4 | O=C1/C(=C/N2CCN(CC(c3ccc(F)cc3)c3ccc(F)cc3)CC2)Oc2ccccc21 | 4.1 µM | 4.7 µM | 13.1 µM | 12.1 µM | Activity (HEp-2 [3]): 25.01%; Activity (HEp-2 [4]): 63.03%; Activity (HEp-2 [5]): 20.89%; Activity (HEp-2 [6]): 18.52%; Activity (HEp-2 [7]): 73.71%; Activity (HEp-2 [8]): 5.55%; Activity (HEp-2 [9]): 19.09%; Activity (HEp-2 [10]): 0%; Activity (HEp-2 [11]): 16.46%; Activity (HEp-2 [12]): 55.9%; Activity (HEp-2 [13]): 5.41%; Activity (HEp-2 [14]): 18.45%
5 | O=C1/C(=C/N2CCN(c3ccccc3)CC2)Oc2ccccc21 | 25.1 µM | 27.7 µM | 36.4 µM | 45.1 µM | 
6 | O=C1/C(=C/N2CCCCC2)Oc2ccccc21 | 47.8 µM | > 50 µM | > 50 µM | > 50 µM | 
7 | Cc1nnc(Sc2coc3ccccc3c2=O)s1 | > 50 µM | 40.2 µM | > 50 µM | > 50 µM | 
8 | O=C1/C(=C/N2CCN(Cc3ccccc3)CC2)Oc2ccccc21 | 7.6 µM | 5.7 µM | 6.6 µM | 9.6 µM | Activity (HEp-2 [15]): 18.2%; Activity (HEp-2 [16]): 4.69%; Activity (HEp-2 [17]): 58.7%; Activity (HEp-2 [18]): 17.46%; Activity (HEp-2 [19]): 23.84%; Activity (HEp-2 [20]): 32.14%; Activity (HEp-2 [21]): 22.98%; Activity (HEp-2 [22]): 75.85%; Activity (HEp-2 [23]): 17.83%; Activity (HEp-2 [24]): 4.93%; Activity (HEp-2 [25]): 6.32%; Activity (HEp-2 [26]): 44.87%
9 | CN1CCN(/C=C2\Oc3ccccc3C2=O)C(c2ccccc2)C1 (stereo not given) | > 50 µM | > 50 µM | > 50 µM | > 50 µM | 
10 | O=c1[nH]cc(F)c(=O)[nH]1 [FLUOROURACIL] | 14.5 µM | 129 µM | 8.1 µM | 18.6 µM | 
11 | Cc1nnc(Sc2coc3ccccc3c2=O)o1 | > 50 µM | > 50 µM | > 50 µM | > 50 µM | 
12 | O=c1c(Sc2nc3ccccc3[nH]2)coc2ccccc12 | 30.3 µM | 42.6 µM | > 50 µM | > 50 µM | 
13 | Cc1cc(C)nc(Sc2coc3ccccc3c2=O)n1 | > 50 µM | > 50 µM | > 50 µM | > 50 µM | 
14 | Nc1nnc(Sc2coc3ccccc3c2=O)s1 | > 50 µM | 47.7 µM | > 50 µM | > 50 µM | 
